Results: paper PMC9909341, “TLQP-21 is a low potency partial C3aR activator on human primary macrophages” (Frontiers in Immunology, 2023)

Tests used:
human C3aR (HMDMs) = test: inhibition of ligand-induced ERK1/2 phosphorylation by SB290157 in HMDMs; type: cell-based; conditions: 5 µM SB290157, 30 min pre-treatment
Description: HMDMs were generated and cultured as previously described ([20]), with experiments approved by The University of Queensland Human Research Ethics Committee. Briefly, human buffy coat blood from anonymous healthy donors was obtained through the Australian Red Cross Blood Service (Brisbane, Australia). Human CD14+ monocytes were isolated from blood using Lymphoprep density centrifugation (STEMCELL, Melbourne, Australia) followed by CD14+ MACS magnetic bead separation (Miltenyi Biotec, Sydney, Australia). The isolated monocytes were differentiated for 7 days in Iscove’s Modified Dulbecco’s Medium supplemented with 10% FBS, 100 IU/ml penicillin, 100 μg/ml streptomycin and 15 ng/ml recombinant human macrophage colony stimulating factor (BioLegend, San Diego, USA) on 10 mm square dishes (Bio-strategy, Brisbane, Australia). Non-adherent cells were removed by washing with DPBS, and the adherent differentiated HMDMs were harvested by gentle scraping.
Ligand-induced ERK1/2 phosphorylation was assessed using the AlphaLISA Surefire Ultra p-ERK1/2 (Thr202/Tyr204) kit (PerkinElmer, Melbourne, Australia) following the manufacturer’s protocol as previously described ([18], [20], [22]). Briefly, CHO-K1, CHO-C3aR, CHO-C5aR1, HMDMs (50,000/well) or BMDMs (90,000/well) were seeded in tissue culture-treated 96-well plates (Corning, Corning, USA) for 24 h and serum-starved overnight. All ligand dilutions were prepared in serum-free medium (SFM) containing 0.1% BSA. For inhibition assays, cells were pre-treated with the following ligands (5 µM SB290157, or respective concentrations of hC3a, mC3a, hC5a, hTLQP-21, and mTLQP-21) or the solvent-only control for 30 min before agonist (hC3a, hTLQP-21 and mTLQP-21) addition. The concentration and identity of the ligands are described in detail in the figure legends. For stimulation, cells were treated with ligands at the indicated concentrations for 10 min at RT and then immediately lysed using AlphaLISA lysis buffer on a microplate shaker (450 rpm, 10 min). For the detection of phospho-ERK1/2 content, cell lysate (5 μL/well) was transferred to a 384-well ProxiPlate (PerkinElmer, Melbourne, Australia) and added to the donor and acceptor reaction mix (2.5 μL/well, respectively), followed by a 2-h incubation at RT in the dark. On a Tecan Spark 20M (Tecan, Männedorf, Switzerland), the plate was measured using standard AlphaLISA settings.
Figure 3 Agonistic and antagonistic activities of hTLQP-21 and mTLQP-21 in human monocyte-derived macrophages. […] The phospho-ERK1/2 content in the cell lysate was measured and normalised to the maximum hC3a/hC5a-induced levels before being combined. […]

C5aR1 = conditions: at the concentration used (5 µM); ref [20]; cited from earlier work
Description: (§1) However, only mouse TLQP-21 was used in these studies and to the best of our knowledge, no data is available for the potential activity of TLQP-21 in human immune cells. […] However, by contrast to hC3a, the agonistic activity of TLQP-21 peptides was markedly weaker in HMDMs relative to CHO-C3aR, with EC50 values in the high micromolar ...

C3aR = conditions: at the concentration used (5 µM); ref [20]; cited from earlier work
Description: as §1

NC(N)=NCCC[C@H](NC(=O)COCC(c1ccccc1)c1ccccc1)C(=O)O [SB290157]
inhibition of hTLQP-21 and mTLQP-21 induced ERK signalling (human C3aR (HMDMs); HMDMs, n = 4 donors): 70-90% | remaining C3a-induced ERK signalling with SB290157 (human C3aR (HMDMs); agonist C3a, HMDMs): less than 20 % of the untreated level | remaining hTLQP-21 induced ERK activation with SB290157 (human C3aR (HMDMs); agonist hTLQP-21): 29 % of the control level | remaining mTLQP-21 induced ERK activation with SB290157 (human C3aR (HMDMs); agonist mTLQP-21): 16 % of the control level | agonist activity of SB290157 on C5aR1 (C5aR1): does not exhibit any detectable agonist activity | agonist activity of SB290157 on C3aR (C3aR): does not exhibit any detectable agonist activity
